Laboratory results: ChEMBL document CHEMBL3046921, “Synthesis of 3,5-disubstituted isoxazolines as protein tyrosine phosphatase 1B inhibitors” (Med Chem Res, 2008)

Legend:
[1] = target: T1, Tyrosine-protein phosphatase non-receptor type 1 (Homo sapiens, UniProt P18031); assay: Inhibition of PTP1B (unknown origin) using p-nitrophenylphosphate as substrate after 10 min
T1 sequence (P18031 whole entry): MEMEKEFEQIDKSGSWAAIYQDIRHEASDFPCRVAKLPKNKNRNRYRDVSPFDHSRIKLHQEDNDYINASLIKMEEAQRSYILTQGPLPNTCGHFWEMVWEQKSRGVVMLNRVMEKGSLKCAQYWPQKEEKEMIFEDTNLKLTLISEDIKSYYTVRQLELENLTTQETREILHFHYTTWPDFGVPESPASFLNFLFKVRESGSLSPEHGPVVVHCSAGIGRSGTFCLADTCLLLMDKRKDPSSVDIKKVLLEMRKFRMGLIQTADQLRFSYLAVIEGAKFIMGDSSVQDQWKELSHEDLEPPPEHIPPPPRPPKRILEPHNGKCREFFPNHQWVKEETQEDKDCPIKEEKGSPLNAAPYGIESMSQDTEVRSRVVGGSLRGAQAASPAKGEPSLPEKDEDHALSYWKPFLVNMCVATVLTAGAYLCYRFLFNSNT

[2] = target: T2, Tyrosine-protein phosphatase non-receptor type 1 (Homo sapiens) (UniProt P18031); assay: (§1) Inhibition of PTP1B (unknown origin) using p-nitrophenylphosphate as substrate at 100 uM after 10 min
T2 sequence (whole entry): T1 sequence (P18031 whole entry)

[3] = tested on: Rattus norvegicus; assay: Antidiabetic activity in albino Rattus norvegicus Sprague-Dawley (rat) streptozotocin-induced diabetic model assessed as reduction of blood glucose level at 100 mg/kg, po after 5 hr; format: functional; design: scale not given: the % may be the effect or the level left
[4] = tested on: Rattus norvegicus; assay: Antidiabetic activity in albino Rattus norvegicus Sprague-Dawley (rat) streptozotocin-induced diabetic model assessed as reduction of blood glucose level at 100 mg/kg, po after 24 hr; format: functional; design: scale not given: the % may be the effect or the level left
[5] = target: Tyrosine-protein phosphatase non-receptor type 1 (Homo sapiens) (UniProt P18031); assay: as §1; remark: listed apart in the source

Compound	IC50 [1] [µM]	inhibition [2] [%]	Activity [3] [%]	Ki [1] [µM]	Activity [4] [%]	inhibition [5] [%]
COc1c(C2=NOC(c3ccccc3)C2)ccc2occc12 (stereo unspecified)	76	80.4	–	–	–	–
COc1ccc(C2=NOC(c3ccccc3)C2)c(O)c1 (stereo unspecified)	–	47.1	–	–	–	–
COc1ccc(C2CC(c3ccc(OC)cc3OC)=NO2)cc1 (stereo unspecified)	67	65.8	2.56	48	12.2	–
COc1c(C2=NOC(c3ccccc3)C2)ccc2c1C=CC(C)(C)O2 (stereo unspecified)	–	64.2	–	–	–	–
SODIUM HYDROXYTRIOXIDOVANADIUM	86.5	–	–	67	–	–
Oc1ccc(C2=NOC(c3ccccc3)C2)c(O)c1 (stereo unspecified)	–	29.5	–	–	–	–
CN(C)C(=N)NC(=N)N [METFORMIN]	–	–	23.6	–	26.5	–
CC(=O)Oc1ccc(C2=NOC(c3ccccc3)C2)c(OC(C)=O)c1 (stereo unspecified)	–	91.6	23	–	15	–
COc1ccc(C2CC(c3ccc4occc4c3OC)=NO2)cc1 (stereo unspecified)	81	79.6	–	–	–	–
COc1ccc(C2=NOC(n3ccnc3)C2)c(OC)c1 (stereo unspecified)	88	79.8	22.3	63	15	–
COc1ccc(C2CC(c3ccc4c(c3OC)C=CC(C)(C)O4)=NO2)cc1 (stereo unspecified)	–	57.7	–	–	–	–
COc1ccc(C2=NOC(c3ccncc3)C2)c(OC)c1 (stereo unspecified)	275	11.5	–	150	–	–
COc1c(C2=NOC(c3ccccn3)C2)ccc2c1C=CC(C)(C)O2 (stereo unspecified)	–	62.4	–	–	–	–
COc1ccc(C2=NOC(c3ccccc3)C2)c(OC(C)=O)c1 (stereo unspecified)	–	28.8	20.5	–	6.96	–
COc1ccc(C2=NOC(c3ccccc3)C2)c(OC)c1 (stereo unspecified)	69	88.5	18	48	19.7	–
COc1ccc(C2=NOC(c3ccccn3)C2)c(OC)c1 (stereo unspecified)	485	9.8	–	170	–	–
SODIUM [sequence]	–	–	–	–	–	56.2
COC(=O)C1C(c2ccc(OC)cc2OC)=NOC1c1ccccc1 (stereo unspecified)	165	46.5	21.6	135	7.74	–
